According to ChEMBL document CHEMBL1201862, “PubChem BioAssay data set” (2004):
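Method: 48-hour compound exposure of cells in 96-well plates, five concentrations, linear interpolation of endpoints. Here, GI50 denotes the concentration required for 50% inhibition of growth.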 Active and inactive are the calls of the source. Cut-off read from the data, not from the text of the source: active = GI50 up to about 1.1 µM and inactive = higher.

How the values were obtained:
Assay in all cases: NCI anticancer screen, dose series, 48 h
[1] = tested on: 786-0
[2] = tested on: A549
[3] = tested on: ACHN
[4] = tested on: BT-549
[5] = tested on: CAKI-1
[6] = tested on: CCRF-CEM
[7] = tested on: COLO 205
[8] = tested on: DU-145
[9] = tested on: EKVX
[10] = tested on: HCC 2998
[11] = tested on: HCT-116
[12] = tested on: HCT-15
[13] = tested on: HL-60
[14] = tested on: HOP-62
[15] = tested on: HOP-92
[16] = tested on: HT-29
[17] = tested on: Hs-578T
[18] = tested on: IGROV-1
[19] = tested on: K562
[20] = tested on: KM12
[21] = tested on: LOX IMVI
[22] = tested on: M14
[23] = tested on: MCF7
[24] = tested on: MDA-MB-231
[25] = tested on: MDA-MB-435
[26] = tested on: MOLT-4
[27] = tested on: Malme-3M
[28] = tested on: NCI-H226
[29] = tested on: NCI-H23
[30] = tested on: NCI-H522
[31] = tested on: NCI/ADR-RES
[32] = tested on: OVCAR-3
[33] = tested on: OVCAR-4
[34] = tested on: OVCAR-5
[35] = tested on: OVCAR-8
[36] = tested on: PC-3
[37] = tested on: RPMI-8226
[38] = tested on: SF-268
[39] = tested on: SF-295
[40] = tested on: SF-539
[41] = tested on: SK-MEL-2
[42] = tested on: SK-MEL-5
[43] = tested on: SK-OV-3
[44] = tested on: SN12C
[45] = tested on: SNB-19
[46] = tested on: SNB-75
[47] = tested on: SR
[48] = tested on: SW-620
[49] = tested on: T47D
[50] = tested on: TK-10
[51] = tested on: U-251
[52] = tested on: UACC-257
[53] = tested on: UACC-62
[54] = tested on: UO-31
[55] = tested on: A498
[56] = tested on: NCI-H460
[57] = tested on: RXF 393
[58] = tested on: SK-MEL-28

Measured: GI50

C[C@H]1CC[C@@]2(OC1)O[C@H]1C[C@H]3[C@@H]4CC[C@@H]5C[C@@H](OC6OC(CO)C(O)C(O)C6OC6OC(CO)C(O)C(O)C6O)CC[C@]5(C)[C@H]4CC[C@]3(C)[C@H]1[C@@H]2C (stereo not given in full)
active: [13] 0.889 µM
1.99 µM: [12]
inactive: [1] 2.01 µM | [2] 2 µM | [3] 2.11 µM | [4] 2.35 µM | [5] 1.8 µM | [6] 1.58 µM | [7] 1.9 µM | [8] 2.34 µM | [9] 2.08 µM | [10] 2.02 µM | [11] 2.01 µM | [14] 2.25 µM | [15] 2.37 µM | [16] 2 µM | [17] 2.44 µM | [18] 2.3 µM | [19] 2.07 µM | [20] 2.6 µM | [21] 1.99 µM | [22] 2.06 µM | [23] 2.1 µM | [24] 2.09 µM | [25] 2.15 µM | [26] 1.84 µM | [27] 2.62 µM | [28] 2.34 µM | [29] 2.31 µM | [30] 2.71 µM | [31] 2.99 µM | [32] 2.16 µM | [33] 2.33 µM | [34] 1.81 µM | [35] 2.45 µM | [36] 2.13 µM | [37] 1.9 µM | [38] 2.3 µM | [39] 2.22 µM | [40] 2.03 µM | [41] 2.28 µM | [42] 2.18 µM | [43] 1.69 µM | [44] 2.07 µM | [45] 2.18 µM | [46] 2.24 µM | [47] 2.07 µM | [48] 1.77 µM | [49] 1.99 µM | [50] 1.94 µM | [51] 2.26 µM | [52] 2.15 µM | [53] 2.4 µM | [54] 1.99 µM

COc1ccccc1NC(=O)CC(=O)N1N=C(N2c3ccccc3Sc3ccccc32)CC1c1ccccc1 (stereo not given)
> 100 µM: [12]
inactive: [1] > 100 µM | [55] > 100 µM | [2] > 100 µM | [3] > 100 µM | [4] > 100 µM | [5] > 100 µM | [6] > 100 µM | [7] > 100 µM | [8] > 100 µM | [9] > 100 µM | [10] > 100 µM | [11] > 100 µM | [13] > 100 µM | [14] > 100 µM | [15] > 100 µM | [16] > 100 µM | [17] > 100 µM | [18] > 100 µM | [19] > 100 µM | [20] > 100 µM | [22] > 100 µM | [23] > 100 µM | [24] > 100 µM | [25] > 100 µM | [26] > 100 µM | [28] > 100 µM | [29] > 100 µM | [56] > 100 µM | [30] > 100 µM | [31] > 100 µM | [32] > 100 µM | [33] > 100 µM | [34] > 100 µM | [35] > 100 µM | [36] > 100 µM | [37] > 100 µM | [57] > 100 µM | [38] > 100 µM | [39] > 100 µM | [40] > 100 µM | [58] > 100 µM | [41] > 100 µM | [42] > 100 µM | [43] > 100 µM | [44] > 100 µM | [45] > 100 µM | [46] > 100 µM | [47] > 100 µM | [48] > 100 µM | [49] > 100 µM | [50] > 100 µM | [51] > 100 µM | [52] > 100 µM | [53] > 100 µM | [54] > 100 µM
